Data reported in US10858326B2, “Oxazoline pseudodimers, pharmaceutical compositions and the use thereof” (PURDUE PHARMA L.P., priority 2016, dated 2020).

Biological target: hTAAR1 (Homo sapiens (Human), UniProt Q96RJ0)
Assay: in vitro cAMP assay (agonist activity assay), HitHunter cAMP XS+, cAMP Hunter cell lines
Type: cell-based
Conditions: cAMP Hunter cells, n in brackets; for EC50: 30 min at 37° C., read-out: hTAAR1 EC50 (mean ± SEM(n)); for Emax: maximal cAMP level, read-out: hTAAR1 Emax (mean ± SEM(n))
Method: EC50 (the effective concentration of an agonist that produces half of the maximal effect) and Emax (the maximal cAMP level generated by the biding of a ligand) can be used as a measure of potency. […] An in vitro cAMP assay (agonist activity assay) is described below.
cAMP Hunter cell lines were expanded from freezer stocks according to standard procedures. Cells were seeded in a total volume of 20 μL into white walled, 384-well microplates and incubated at 37° C. overnight prior to testing. cAMP modulation was determined using the HitHunter™ cAMP XS+ assay (DiscoverX, Fremont, Calif.).
On the day of test, media was aspirated from cells and replaced with 15 μL HBSS/10 mM HEPES. A plate centrifuge was used for the media exchange, and the plate centrifuge was immediately stopped once its speed hit 270 RPM.
5 μL of 4× compound (prepared in HBSS/10 mM HEPES/4% DMSO) was added to cells and incubated at 37° C. for 30 minutes. Final assay vehicle concentration was 1%.
5 μL of cAMP XS+ Antibody reagent was then added, followed by 20 μL of ED/CL lysis mix. The mixture was incubated at room temperature for 60 minutes. 20 μL of EA reagent was added, and the mixture was incubated at room temperature for 120 minutes.
Microplates were read following signal generation with a PerkinElmer Envision™ instrument (Waltham, Mass.) for chemiluminescent signal detection. Compound activity was analyzed using CBIS Data Analysis Suite (ChemInnovation, CA).

hTAAR1, sequence (Q96RJ0 whole entry): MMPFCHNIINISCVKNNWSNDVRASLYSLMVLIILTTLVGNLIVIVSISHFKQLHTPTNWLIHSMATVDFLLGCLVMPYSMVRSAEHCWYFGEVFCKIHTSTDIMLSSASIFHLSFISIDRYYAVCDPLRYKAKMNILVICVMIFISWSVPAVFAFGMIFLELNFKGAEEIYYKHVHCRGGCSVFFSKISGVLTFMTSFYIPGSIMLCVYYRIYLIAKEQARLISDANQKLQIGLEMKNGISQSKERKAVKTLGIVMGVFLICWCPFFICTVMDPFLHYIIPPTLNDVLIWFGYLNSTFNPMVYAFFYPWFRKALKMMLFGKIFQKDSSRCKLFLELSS

| Compound | EC50 [µM] | Emax [%] |
| --- | --- | --- |
| c1ccc([C@H]2COC(NC3=N[C@@H](c4ccccc4)CO3)=N2)cc1 [Compound (26), (4S)-4-phenyl-N-[(4S)-4-phenyl-4,5-dihydro-1,3-oxazol-2-yl]-4,5-dihydro-1,3-oxazol-2-amine] | > 10 | 3.6 ± 0.9 |
| Cc1c(F)cccc1[C@H]1COC(NC2=N[C@@H](c3cccc(F)c3C)CO2)=N1 [Compound (27), (4S)-4-(3-fluoro-2-methylphenyl)-N-[(4S)-4-(3-fluoro-2-methylphenyl)-4,5-dihydro-1,3-oxazol-2-yl]-4,5-dihydro-1,3-oxazol-2-amine] | 0.398 ± 0.0656 | 67.5 ± 3.4 |

Continued, in another order:

| EC50 [µM] | Compound | Emax [%] |
| --- | --- | --- |
| > 10 | Clc1ccc([C@H]2COC(NC3=N[C@@H](c4ccc(Cl)c(Cl)c4)CO3)=N2)cc1Cl [Compound (8), (4S)-4-(3,4-dichlorophenyl)-N-[(4S)-4-(3,4-dichlorophenyl)-4,5-dihydro-1,3-oxazol-2-yl]-4,5-dihydro-1,3-oxazol-2-amine] | – |
| > 10 | CCN(C[C@H]1COC(NC2=N[C@@H](c3ccc(Cl)c(Cl)c3)CO2)=N1)c1ccccc1 [Compound (24), (4S)-4-(3,4-dichlorophenyl)-N-[(4S)-4-{[ethyl(phenyl)amino]methyl}-4,5-dihydro-1,3-oxazol-2-yl]-4,5-dihydro-1,3-oxazol-2-amine] | 34.3 ± 8.7 |
| 4.07 ± 1.07 | CCN(C[C@H]1COC(NC2=N[C@@H](CN(CC)c3ccccc3)CO2)=N1)c1ccccc1 [Compound (25), (4S)-4-{[ethyl(phenyl)amino]methyl}-N-[(4S)-4-{[ethyl(phenyl)amino]methyl}-4,5-dihydro-1,3-oxazol-2-yl]-4,5-dihydro-1,3-oxazol-2-amine] | 60.7 ± 9.4 |
